# Measurements: patent publication US20070275877A1, “Methods for Treating or Ameliorating Ghrelin-Associated Diseases and Disorders” (AMYLIN PHARMACEUTICALS, INC., priority 2003, published 2007)
# No end group written: not given here.
# Tests used:
# [1] = treated test animals; e.g., provoking marked hyperlactemia followed by hyperglycemia; cited from earlier work
# ghrelin levels = assay: Crossover study of pramlintide in humans: ghrelin levels (Example 6); type: in vivo, human; conditions: single SC dose of pramlintide 30 μg, n=15, FIG. 6
# Method: FIG. 6 depicts a graph of the effect of an amylin analog on ghrelin levels in humans.
# (§1) Ghrelin levels were measured in a single-center, randomized, double-blind, placebo-controlled, two-period, crossover study was designed to examine the acute effects of pramlintide, an amylin analog, in humans. The study consisted of two treatment periods (Period 1/Visit 2 and Period 2/Visit 3) with at least 72 h between each treatment period. After successful completion of all Screening procedures (including informed consent), subjects (n=15) were randomly assigned to one of two treatment sequences (pramlintide: placebo or placebo: pramlintide). Subjects were instructed to fast from 2200 h on the evening before both treatment periods until the start of the test (the next morning).
# On the mornings of Period 1 and Period 2, an intravenous cannula was placed in an antecubital vein for blood sampling (t=−1 h). Vital signs and weight were measured at this time. During each treatment period, subjects received study medication (pramlintide or placebo) immediately followed by a standardized, liquid preload meal, which was to be consumed within 3 min. Subjects received a single SC dose of pramlintide 30 μg or placebo. […] The buffet meal included a selection of carbohydrate-rich foods in quantities in excess of what subjects were expected to eat. […]
# [2] = Crossover study of pramlintide in humans: ad libitum buffet meal intake (Example 6); type: in vivo, human; conditions: single SC dose of pramlintide 30 μg
# Method: as §1
# On the mornings of Period 1 and Period 2, an intravenous cannula was placed in an antecubital vein for blood sampling (t=−1 h). Vital signs and weight were measured at this time. During each treatment period, subjects received study medication (pramlintide or placebo) immediately followed by a standardized, liquid preload meal, which was to be consumed within 3 min. Subjects received a single SC dose of pramlintide 30 μg or placebo. One hour later (t=1 h), subjects consumed an ad libitum buffet meal, which was offered for 45 min. The buffet meal included a selection of carbohydrate-rich foods in quantities in excess of what subjects were expected to eat. Venous blood samples were collected over a 5.5-h period (t=−0.5 h to 5 h) for the measurement of postprandial metabolic and hormonal responses. Procedures for Period 2 were exactly as those described for Period 1, only the alternate treatment was given.
# [3] = cited from earlier work
# active ghrelin [4] = assay: Amylin receptor antagonist s.c., plasma ghrelin in non-fasted rats given pentagastrin (Example 4, FIG. 4A); type: in vivo; conditions: AC187 3 mg/rat s.c. at -5 min, pentagastrin 125 μg/kg s.c. at 0 min
# Method: (§2) FIGS. 4A and 4B depict graphs of the effects of an amylin receptor antagonist on ghrelin levels in an animal model.
# (§3) The following methods apply to Examples 1-4 as indicated. Male Harlan Sprague Dawley® (HSD) rats were housed at 22.8±0.8° C. in a 12:12 hour light:dark cycle. All experiments were performed in the light cycle. Animals were fasted for approximately 20 hours before experimentation (examples 1, 2 and 3) or fed ad libidum (Example 4). All animals were given free access to water until the start of the experiment. The animals' tails were anesthetized with 20% benzocaine (Hurricaine, Beutlich Pharmaceutical, Waukegan, Ill.), and blood samples were collected from the tail vein. Total and active ghrelin concentrations were measured using Linco RIA kits GHRA-89HK and GHRA-88HK, respectively.
# These experiments were conducted to determine whether the amylin receptor antagonist AC187 blocked an effect of endogenous amylin on plasma ghrelin levels in non-fasted rats. Baseline blood samples for ghrelin to be assayed were taken at t=−10 min. AC187 (lot #AR741-72, Amylin Pharmaceuticals), at a dose of 3 mg/rat in 300 μl of saline, or saline vehicle alone, was given by subcutaneous injection (n=6, 8 respectively) at t=−5 min. Animals additionally received a subcutaneous injection of pentagastrin (Sigma, Lot#050K1525) in the amount of 125 μg/kg body mass at time=0 min. […]
# active ghrelin [5] = assay: Amylin receptor antagonist i.v., plasma ghrelin in fed rats (Example 4, FIG. 4B); type: in vivo; conditions: AC187 3 mg/rat i.v.; five minutes after administration; fed animals; saline controls 1.4±6.4% decrease, P<0.03
# Method: as §2, §3
# In a second, related experiment, baseline blood samples for ghrelin to be assayed were taken at t=0 minutes. AC187 (lot#AR2237-18B, Amylin Pharmaceuticals, Inc.), at a dose of 3 mg/rat in 300 μl of saline or saline vehicle alone, was given by intravenous injection in the tail vein at t=0. Plasma samples were collected at time 0, 5, and 15 minutes. Five minutes after administration of AC187 in fed animals, active ghrelin concentrations increased by 16.3±4.0%, as compared to a 1.4±6.4% decrease in saline controls (P<0.03), see FIG. 4B.
# [6] = tested on: active (acylated) ghrelin; assay: Effect of rat amylin on ghrelin levels in pentagastrin-treated fasted rats (Example 1); type: in vivo; conditions: 10 μg rat amylin s.c. 20 min after 125 μg/kg pentagastrin s.c.
# Method: FIG. 1 depicts a graph of the effect of exogenously administered rat amylin on endogenous ghrelin levels in an animal model. 125 μg pentagastrin (PG) was administered at t=0 and 10 μg amylin was administered at t=20 (dotted lines).
# as §3
# HSD rats were subjected to periodic blood sampling from the topically anesthetized tail and ghrelin levels were assayed. At t=0, rats (n=6) were injected s.c. with 125 μg/kg pentagastrin (Sigma) to stimulate gastric acid secretion (PG=0 min in FIG. 1), and 20 min later were injected subcutaneously (s.c.) with 10 μg rat amylin. The blood samples were analyzed for total and active (acylated) ghrelin (Linco).
# total plasma ghrelin [7] = assay: Effect of rat amylin on ghrelin levels with and without pentagastrin in fasted rats (Example 2); type: in vivo
# Method: FIGS. 2A and 2B depict graphs of the effect of rat amylin on ghrelin levels in an animal model in the presence and absence of pentagastrin.
# as §3
# These experiments were conducted to examine whether exogenous amylin inhibits ghrelin secretion independent of pentagastrin stimulation. Fasted rats were given either a subcutaneous injection of saline or of 30 μg/kg rat amylin (FIG. 2A) or a subcutaneous injection of either saline or 125 μg/kg pentagastrin (Sigma, Lot#050K1525) (FIG. 2B) at time=0 min. […]
# total plasma ghrelin [8] = assay: Dose-response effects of amylin on ghrelin levels in fasted rats (Example 3); type: in vivo, rat
# Method: FIGS. 3A and 3B depict graphs of dose-response effects of rat amylin on ghrelin levels in an animal model.
# as §3
# These experiments were conducted to identify dose-response effects of amylin on ghrelin levels in fasted rats. Rat amylin (lot #AR2081-42A, Amylin Pharmaceuticals) in 100 μl saline was given by subcutaneous injections at doses: 0, 1, 10, 30 and 100 μg/kg (n=5, 4, 5, 5, 4 respectively) at time=0 min. Blood plasma samples were collected at time=0, 10, 20, 30, 60, 90 and 120 min after amylin injection. […] Pairwise statistical analyses were performed using Student's t-test (Instat v2.0, GraphPad Software Inc, San Diego). Results are reported as mean±standard error of the mean, and P<0.05 is used as the level of significance.
# active ghrelin [9] = assay: Amylin effect on ghrelin in area postrema-lesioned and sham operated rats (Example 5); type: in vivo, rat
# Method: FIG. 5 depicts a graph of the effect of the area postrema on amylin's effect on ghrelin secretion.
# In this experiment, fasted, Sprague-Dawley® rats with localized lesions of the area postrema (AP) made by vacuum aspiration 3 weeks before the experiments and sham operated rats (sham) were injected s.c. with amylin (30 μg/kg) or saline (n=4, 4 respectively). At t=0, 10, 20, 30, 60, 90 and 120 minutes after the s.c. injection, total ghrelin concentrations were measured and reports as % of the baseline.
# Twenty minutes after a 30 μg/kg subcutaneous amylin injection in Sham rats, active ghrelin concentration decreased by 31.3±3.3%, while active ghrelin concentrations in saline controls increased by 23.5±22.1% (P<0.05).
compound,measurement,setting,value
"des-^1Lys-h-amylin (CNTATCATQRLANFLVHSSNNFGAILSSTNVGSNTY; ends and bridges not checked; cysteine pairing not given here; UniProt P10997 35-70, looked up, fragment)",amylin activity in vivo,[1],show amylin activity in vivo
"CC[C@H](C)[C@H](NC(=O)[C@@H]1CCCN1C(=O)CNC(=O)[C@H](Cc1ccccc1)NC(=O)[C@H](CC(N)=O)NC(=O)[C@H](CC(N)=O)NC(=O)[C@H](CO)NC(=O)[C@H](CO)NC(=O)[C@H](Cc1c[nH]cn1)NC(=O)[C@@H](NC(=O)[C@H](CC(C)C)NC(=O)[C@H](Cc1ccccc1)NC(=O)[C@H](CC(N)=O)NC(=O)[C@H](C)NC(=O)[C@H](CC(C)C)NC(=O)[C@H](CCCNC(=N)N)NC(=O)[C@H](CCC(N)=O)NC(=O)[C@@H](NC(=O)[C@H](C)NC(=O)[C@@H]1CSSC[C@H](NC(=O)[C@@H](N)CCCCN)C(=O)N[C@@H](CC(N)=O)C(=O)N[C@@H]([C@@H](C)O)C(=O)N[C@@H](C)C(=O)N[C@@H]([C@@H](C)O)C(=O)N1)[C@@H](C)O)C(C)C)C(=O)N[C@@H](CC(C)C)C(=O)N1CCC[C@H]1C(=O)N1CCC[C@H]1C(=O)N[C@H](C(=O)N[C@@H](CC(N)=O)C(=O)N[C@H](C(=O)NCC(=O)N[C@@H](CO)C(=O)N[C@@H](CC(N)=O)C(=O)N[C@H](C(=O)N[C@@H](Cc1ccc(O)cc1)C(N)=O)[C@@H](C)O)C(C)C)[C@@H](C)O [pramlintide, ^25,28,29Pro-h-amylin]",ghrelin levels following an ad libitum buffet meal compared to placebo,ghrelin levels,further reduced
same,duration of the meal time compared to placebo,[2],reduced
same,"fat, carbohydrate, and protein intake compared to placebo",[2],proportionate reductions
same,total caloric intake of the buffet meal compared to placebo,[2],reduced
"^18Arg^25,28Pro-h-amylin (KCNTATCATQRLANFLVRSSNNFGPILPSTNVGSNTY)",amylin activity in vivo,[1],show amylin activity in vivo
same,solubility characteristics compared to human amylin,[3],more desirable
"Ac ^30Asn, ^32Tyr-sCT[8-32] [AC187]",active ghrelin concentrations compared to saline injected controls,active ghrelin [4],higher
same,increase of active ghrelin concentrations,active ghrelin [5],16.3±4.0%
"rat amylin (KCNTATCATQRLANFLVRSSNNLGPVLPPTNVGSNTY; not fully specified; ends and bridges not checked; UniProt P12969 38-74, looked up) [rat amylin peptide hormone (AC0128, Amylin Pharmaceuticals)]",time within which active ghrelin was reduced by 50%,[6],≤ 1 h
same,reduction of active ghrelin,[6]; FIG. 1,50%
same,"plasma ghrelin compared to the control, amylin alone",total plasma ghrelin [7]; 30 μg/kg rat amylin s.c. without pentagastrin,reduced
same,total plasma ghrelin compared to the saline control,"total plasma ghrelin [7]; 30 μg/kg rat amylin s.c., FIGS. 2A and 2B",reduction in total plasma ghrelin
same,inhibition of ghrelin at lowest dose,total plasma ghrelin [8]; amylin dose of 1 μg/kg s.c.,trend to inhibit ghrelin
same,"reduction of ghrelin, significance","total plasma ghrelin [8]; amylin doses of 10 μg/kg and above s.c., P<0.05 level",statistically significant
same,"total plasma ghrelin concentrations, dose-response","total plasma ghrelin [8]; rat amylin s.c. 0, 1, 10, 30 and 100 μg/kg, fasted rats, FIG. 3A",dose-dependent reduction
same,time of ghrelin concentration nadirs after amylin injection,"total plasma ghrelin [8]; rat amylin s.c. 1-100 μg/kg, fasted rats",60 to 90 min
same,"difference in ghrelin concentration, amylin versus saline","active ghrelin [9]; AP-lesioned rats, 30 μg/kg s.c. amylin, P=0.24",no significant difference
same,increase of ghrelin concentration,"active ghrelin [9]; AP-lesioned rats, 30 μg/kg s.c. amylin, saline +49.6±21.0%, P=0.24",13.7±17.6%
same,decrease of active ghrelin concentration,"active ghrelin [9]; Sham rats, twenty minutes after 30 μg/kg s.c. amylin, saline controls increased by 23.5±22.1%, P<0.05",31.3±3.3%
^28Pro-h-amylin (KCNTATCATQRLANFLVHSSNNFGAILPSTNVGSNTY),amylin activity in vivo,[1],show amylin activity in vivo
"^25Pro^26Val^28,29 Pro-h-amylin (KCNTATCATQRLANFLVHSSNNFGPVLPPTNVGSNTY)",solubility characteristics compared to human amylin,[3],more desirable
"des-^1Lys^18Arg^25,28Pro-h-amylin",amylin activity in vivo,[1],show amylin activity in vivo
